The values that follow come from patent US5985885A, “Quinazoline-4-amino-2-(piperidine-1-yl-4-substituted) derivatives having antihypertensive activity, a method for their preparation and their pharmaceutical use” (priority 1996, dated 1999).

Where two headings read alike, the source gives them in different places.

A word on the IC50: it is the concentration that inhibits the measured activity by half.

In series [1] the target is T1, alpha1B adrenergic receptor (rat liver) (Rattus norvegicus, UniProt P15823).
T1 sequence (P15823 1-515): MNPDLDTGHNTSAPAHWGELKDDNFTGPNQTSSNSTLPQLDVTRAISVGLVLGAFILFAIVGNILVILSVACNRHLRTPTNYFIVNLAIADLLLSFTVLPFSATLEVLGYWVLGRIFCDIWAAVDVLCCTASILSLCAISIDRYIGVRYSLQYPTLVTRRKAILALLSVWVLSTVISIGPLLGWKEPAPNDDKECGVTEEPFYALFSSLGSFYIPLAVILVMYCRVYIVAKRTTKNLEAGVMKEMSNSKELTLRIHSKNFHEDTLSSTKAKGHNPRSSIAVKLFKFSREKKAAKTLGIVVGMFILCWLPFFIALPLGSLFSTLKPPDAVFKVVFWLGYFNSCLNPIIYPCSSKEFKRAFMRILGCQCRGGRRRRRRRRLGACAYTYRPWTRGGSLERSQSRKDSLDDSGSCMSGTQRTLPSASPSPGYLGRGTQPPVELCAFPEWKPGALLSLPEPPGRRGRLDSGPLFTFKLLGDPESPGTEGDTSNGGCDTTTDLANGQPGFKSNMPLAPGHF
Put plainly: [3H]-prazosin binding in rat liver.

The subject of series [2] is anaesthetised normotensive rat. The series is described as follows: Hypotensive activity in the anaesthetised normotensive rat (IV). Type of series: in vivo. As to conditions: for ED30: Rattus norvegicus, read-out: Reduction in mean arterial pressure ED30. As for the experimental part: In order to evaluate the in vivo activity, some of the compounds of the invention were administered (IV) in bolus form to the normotensive rat anaesthetised with urethane plus ketamine. The compounds were administered in at least three doses in experiments performed in duplicate so as to enable the calculation of ED30 values, that is, the dose in mg/kg that reduces the mean basal arterial pressure by 30%. The compounds of the invention, and several reference standards, were dissolved in dilute hydrochloric acid at a physiologically acceptable pH, and physiological solution was administered in a volume of 3 ml/kg. Evaluations were made at two time periods, that is, the intervals 0-30 min and 30-60 min after administration.

Series [3] deals with alpha1A + alpha1C adrenergic receptor (human prostate). Put plainly: [3H]-prazosin binding in human prostate. As to conditions: alpha1A + alpha1C subtype, pH 7.5, 30 min, 25° C., read-out: Inhibition of the binding of [3H]-prazosin IC50.
Series [4] relates to spontaneously hypertensive (SHR) rat. Put plainly: Anti-hypertensive activity in the spontaneously hypertensive (SHR) rat (oral). Type of series: in vivo. As to conditions: for ED20: Rattus norvegicus, 2 h, 0-120 min, NC: not calculable, read-out: Systolic pressure ED20 (0-120 min). The text has this:
Animals having a mean basal systolic pressure of not less than 180 mmHg were used.

In series [5] the target is T2, 5-HT2 receptors (isolated rabbit aorta) (Oryctolagus cuniculus, UniProt G1SYA7).
T2 construct: Four rings formed from rabbit aorta were joined together to form a chain; from tissue; host or cells: isolated rabbit aorta rings
T2 sequence (G1SYA7 1-469): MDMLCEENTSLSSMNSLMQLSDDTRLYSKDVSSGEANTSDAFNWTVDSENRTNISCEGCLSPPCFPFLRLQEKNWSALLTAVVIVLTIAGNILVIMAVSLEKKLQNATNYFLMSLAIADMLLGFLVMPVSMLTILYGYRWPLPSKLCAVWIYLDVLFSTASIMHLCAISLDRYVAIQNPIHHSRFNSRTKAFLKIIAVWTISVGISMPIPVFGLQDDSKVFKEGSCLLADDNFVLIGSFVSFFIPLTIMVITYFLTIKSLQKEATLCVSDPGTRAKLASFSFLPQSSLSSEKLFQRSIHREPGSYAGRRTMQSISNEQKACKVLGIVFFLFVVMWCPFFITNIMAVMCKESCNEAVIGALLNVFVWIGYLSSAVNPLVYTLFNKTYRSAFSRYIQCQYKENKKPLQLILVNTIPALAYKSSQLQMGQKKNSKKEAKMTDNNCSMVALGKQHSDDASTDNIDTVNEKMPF
The series is described as follows: Antagonism of serotonin-induced contraction of isolated rabbit aorta. The procedure:
The antagonist activity of some of the compounds of the invention on the contractile activity of seratonin on isolated rabbit aorta, effected principally by way of the 5-HT2 receptors, is reported here by way of example. The method of Feniuk et al [Br. J. Pharmacol. (1985), 86, 697-704] was used, with slight modifications. Four rings formed from rabbit aorta were joined together to form a chain; the preparation was placed in an isolated organ bath in the presence of Krebs at 37° C. and attached to an isometric transducer, a tension of 2 g being applied and oxygenation was carried out continuously with O2 --CO2 (95-5 v/v). A seratonin concentration(0.3 μM) was used that was capable of causing sub-maximal contraction of the preparation. […] The results obtained in this way are given in Table 4 below which, for several of the compounds of the invention gives IC50 values calculated by the regression method on a set of at least 2 experiments at 5 different concentrations for each of the compounds examined, these being compared with values obtained for several reference compounds.

Series [6] concerns the target T3, alpha1A adrenergic receptor (rat GSM) (Rattus norvegicus, UniProt P43140).
T3 sequence (P43140 1-466): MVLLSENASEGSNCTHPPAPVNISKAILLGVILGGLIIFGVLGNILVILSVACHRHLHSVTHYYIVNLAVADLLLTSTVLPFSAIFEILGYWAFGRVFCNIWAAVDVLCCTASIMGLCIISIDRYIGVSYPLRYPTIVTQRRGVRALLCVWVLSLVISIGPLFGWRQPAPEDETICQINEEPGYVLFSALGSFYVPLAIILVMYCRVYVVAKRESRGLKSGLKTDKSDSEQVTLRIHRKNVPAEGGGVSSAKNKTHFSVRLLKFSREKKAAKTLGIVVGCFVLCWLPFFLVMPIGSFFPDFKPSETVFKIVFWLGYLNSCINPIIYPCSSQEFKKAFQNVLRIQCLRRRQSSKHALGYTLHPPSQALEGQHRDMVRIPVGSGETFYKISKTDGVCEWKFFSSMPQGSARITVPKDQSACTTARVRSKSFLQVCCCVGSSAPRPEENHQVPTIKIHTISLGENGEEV
Put plainly: [3H]-prazosin binding in rat submaxillary glands (GSM). To be noted: alpha1A subtype, pH 7.4, 45 min, 25° C., read-out: Inhibition of the binding of [3H]-prazosin IC50.

[7] abbreviates: 0.5 h, IV bolus, interval 0-30 min.
Where [8] appears, read: 1 h, IV bolus, interval 30-60 min.
Setting [9] is: isolated rabbit aorta, 37° C., compound 10 min before agonist, limits (p < 0.05).
[10] abbreviates: read-out: Inhibition of the binding of [3H]-prazosin IC50, rat liver, alpha1B subtype.
[11] abbreviates: read-out: Inhibitory effect (IC50) on the contraction caused by 0.3 μM serotonin, isolated rabbit aorta, 37° C., compound 10 min before agonist, limits (p < 0.05).

As to `COc1cc2nc(N3CCC(c4ccccc4)CC3)nc(N)c2cc1OC` [Compound 1], the 50% inhibitory concentration (IC50) in series [1] is 13 nM; in series [3] it was 2 nM; in series [5] (setting [9]), 16500 nM; in series [6], 6.1 nM. The results for the ED30 in series [2] (setting [7]) and in series [2] (setting [8]) were 0.19 mg/kg and 0.31 mg/kg, respectively. Moreover, the “Cardiac frequency, max effect at 3 mg/kg” value in series [4] (3 mg/kg) is recorded as -0.8 % vs basal. For the same compound, the “Systolic pressure, max effect at 3 mg/kg” value in series [4] (3 mg/kg) is -7.5 % vs basal.
Consider `COc1cc2nc(N3CCC(c4ccccc4OC)CC3)nc(N)c2cc1OC` [Compound 2], for which the IC50 in series [1] is 7.7 nM; in series [3], 7.8 nM; in series [5] (setting [9]), 37300 nM; in series [6] it was 18.8 nM. In addition, the ED30 in series [2] (setting [7]) turned out to be 0.5 mg/kg; in series [2] (setting [8]), 0.55 mg/kg. Besides, the “Cardiac frequency, max effect at 3 mg/kg” value in series [4] (3 mg/kg) is “+2.1 % vs basal”. For the same compound, the “Systolic pressure, max effect at 3 mg/kg” value in series [4] (3 mg/kg) is on record as -6.4 % vs basal.
For the compound `CCOc1ccccc1C1CCN(c2nc(N)c3cc(OC)c(OC)cc3n2)CC1` [Compound 3], the IC50 in series [1] (setting [10]) is 14 nM; in series [3], 10.8 nM; in series [5] (setting [11]) it was 73400 nM; in series [6], 10.7 nM. Besides, the ED30 in series [2] (setting [7]) was 0.32 mg/kg; in series [2] (setting [8]), 0.35 mg/kg.
`COc1cc2nc(N3CCC(c4ccco4)CC3)nc(N)c2cc1OC` [Compound 4]: the IC50 in series [1] (setting [10]) is 1.7 nM; in series [3] it was 3.8 nM; in series [5] (setting [11]), 32700 nM; in series [6], 3.1 nM. Besides, the ED30 was 0.08 mg/kg in series [2] (setting [7]) and 0.1 mg/kg in series [2] (setting [8]). Moreover, in series [4] (3 mg/kg), the “Cardiac frequency, max effect at 3 mg/kg” value is “+0.6 % vs basal”. The “Systolic pressure, max effect at 3 mg/kg” value in series [4] (3 mg/kg) was -15.5 % vs basal. For the same compound, the ED20 in series [4] is 13.1 mg/kg.
`COc1cc2nc(N3CCC(c4ccc(C)o4)CC3)nc(N)c2cc1OC` [Compound 5]: the IC50 in series [1] was 2.1 nM; in series [3] it was 1.7 nM; in series [5] (setting [9]), 8410 nM; in series [5] (rabbit aorta, 0.3 μM serotonin, conversion of 3.1 μg/ml, read-out: IC50, 5-HT2 antagonist activity) it was 7600 nM; in series [6], 3.5 nM. Further, the ED30 in series [2] (setting [7]) and in series [2] (setting [8]) was 0.03 mg/kg throughout. The “anti-hypertensive action (in words)” value in series [4] was “about as powerful as prazosin”. The “Cardiac frequency, max effect at 3 mg/kg” value in series [4] (3 mg/kg) is reported as -0.2 % vs basal. In addition, the “Systolic pressure, max effect at 3 mg/kg” value in series [4] (3 mg/kg) is reported as -22.1 % vs basal. Also, the ED20 in series [4] was 2 mg/kg. Besides, the “times less than ketanserine (IC50)” value in series [5] (rabbit aorta, versus ketanserine IC50 0.09 μg/ml) is “approximately 30 times”.
For `COc1cc2nc(N3CCC(c4cccs4)CC3)nc(N)c2cc1OC` [Compound 6], the IC50 in series [1] was 6 nM; in series [3] it was 4.5 nM; in series [5] (setting [9]) it was 88300 nM; in series [6], 4.1 nM. Moreover, the values for the ED30 in series [2] (setting [7]) and in series [2] (setting [8]) were 0.06 mg/kg and 0.08 mg/kg, respectively. Further, the “Cardiac frequency, max effect at 3 mg/kg” value in series [4] (3 mg/kg) was “+2.7 % vs basal”. Also, in series [4] (3 mg/kg), the “Systolic pressure, max effect at 3 mg/kg” value is -8.4 % vs basal.
For `COc1cc2nc(N3CCC(c4cc5ccccc5o4)CC3)nc(N)c2cc1OC` [Compound 8], the IC50 in series [1] was 5.2 nM; in series [3] it was 20 nM; in series [5] (setting [9]) it was 16600 nM; in series [6] it was 18.4 nM. For the same compound, the results for the ED30 in series [2] (setting [7]) and in series [2] (setting [8]) were 0.07 mg/kg and 0.09 mg/kg, respectively. Further, the “anti-hypertensive action (in words)” value in series [4] is given as “about as powerful as prazosin”. Moreover, the “Cardiac frequency, max effect at 3 mg/kg” value in series [4] (3 mg/kg) was -5.2 % vs basal. For the same compound, the “Systolic pressure, max effect at 3 mg/kg” value in series [4] (3 mg/kg) is -20.2 % vs basal. Besides, the ED20 in series [4] was 2.6 mg/kg.
Regarding `COc1cc2nc(N3CCN(C(=O)c4ccco4)CC3)nc(N)c2cc1OC` [Prazosin, reference compound], in series [2] (setting [7]), the ED30 was 0.02 mg/kg. Further, the ED30 in series [2] (setting [8]) came to 0.05 mg/kg. For the same compound, in series [4] (3 mg/kg), the “Cardiac frequency, max effect at 3 mg/kg” value was “+9.7 % vs basal” and the “Systolic pressure, max effect at 3 mg/kg” value is listed as -20.0 % vs basal. Besides, in series [4] (3 mg/kg, significant), the “increase in cardiac frequency over the basal frequency” value is given as “approximately 10%”. Further, in series [4], the ED20 was 2.8 mg/kg. Also, in series [5] (setting [9]), the IC50 is above 130000 nM. In series [5] (rabbit aorta), the “5-HT2-antagonist activity (in words)” value is “inactive until higher doses (50 μg/ml)”.
For the compound `COc1ccc(CCN(C)CCCC(C#N)(c2ccc(OC)c(OC)c2)C(C)C)cc1OC` (stereo not drawn) [Verapamil, reference compound], the “hypotensive activity compared with prazosin/compounds (in words)” value in series [2] (IV bolus) was “less active”. Besides, the ED30 in series [2] (iv, 0.5 h) was 0.63 mg/kg. In addition, in series [2] (iv, 1 h), the ED30 was 1.06 mg/kg. For the same compound, in series [4] (3 mg/kg), the “Cardiac frequency, max effect at 3 mg/kg” value is recorded as “+2.8 % vs basal”; the “Systolic pressure, max effect at 3 mg/kg” value is given as -9.0 % vs basal; the “reduction of arterial pressure” value is given as at most 9%.
